In US20140243403A1, “TREATING COLORECTAL, PANCREATIC, AND LUNG CANCER” (The General Hospital Corporation, priority 2011, published 2014):

Columns and labels:
[1] = Toxicity in treated xenograft mice; assay type: in vivo, NOD/SCID mice; conditions: 15 mg/kg daily intraperitoneal
Procedure: (§1) To validate the efficacy of 5Z-7-oxozeaenol in vivo, subcutaneous xenografted tumors were generated in NOD/SCID mice using four representative KRAS mutant cell lines: HCT8 and SW837 (KRAS-independent), and SK-CO-1 and SW620 (KRAS-dependent). Human colorectal cancer tumor cells were trypsinized and resuspended as single cell suspensions at 3×10^7 cells per ml in PBS. 100 μL (3×10^6 cells total) of this suspension were injected into opposite left and right flanks of NOD/SCID mice. All mice were housed in a pathogen-free environment. Tumor size was monitored daily and once tumor volume had reached approximately 200 mm^3, treatment with 5Z-7-oxozeaenol was initiated (7 to 14 days post-implantation). Mice were injected daily with 15 mg/kg 5Z-7-oxozeaenol. The drug was resuspended as a 25 mg/ml stock in DMSO. This was further diluted 10-fold in Arachis Oil (Sigma Inc.) to yield a 2.5 mg/ml stock in 10% DMSO. Approximately 120 μl of this stock was delivered to 20 g mice intraperitoneally. Alternatively, 10% DMSO in Arachis Oil was delivered as a vehicle control.
Palpable tumors were evident two weeks post-implantation, at which time mice were treated with either daily intraperitoneal 15 mg/kg of 5Z-7-oxozeaenol or vehicle alone (Rawlins et al., 1999).

[2] = system: SK-CO-1 and SW620 (KRAS-dependent) xenografted tumors; assay: Subcutaneous xenografted tumors, KRAS-dependent; assay type: in vivo, NOD/SCID mice; conditions: 15 mg/kg daily intraperitoneal, 6 days of treatment
Procedure: (§2) (C) TAK1 inhibition in mice with xenografted human tumors derived from the HCT8/SW837 (KRAS-independent) and SK-CO-1/SW620 (KRAS-dependent) cell lines. Cells expressing firefly luciferase were injected subcutaneously into the flanks of […]. Tumors are shown as imaged by IVIS detection of luminescence counts (in photons/sec) following 14 days of tumor growth followed by 6 days of treatment with either 15 mg/kg 5z-7-oxozeaenol or vehicle ([…] in arachis oil), IP delivery q.d. Quantitation of tumor volume (mm^3) is plotted on the right. Tumor volume data are represented as the mean of 4 tumors in 2 mice for each group+/−SEM.
as §1, with “The drug was resuspended as a 25 mg/ml stock in DMSO. This was further diluted 10-fold in Arachis Oil (Sigma Inc.) to yield a 2.5 mg/ml stock in 10% DMSO. Approximately 120 μl of this stock was delivered to 20 g mice intraperitoneally. Alternatively, 10% DMSO in Arachis Oil was delivered as a vehicle control.” left out

[3] = system: HT29 cells expressing mutant NRAS; assay: Sensitivity of HT29 cells expressing mutant NRAS; assay type: cell-based, human; conditions: HT29 cells with ectopic mutant NRAS
Source text: (D) Forced overexpression of epitope-tagged oncogenic G12V mutated RAS protein isoforms in HT29 cells and sensitivity to TAK1 pharmacological inhibition with 5Z-7-oxozeaenol. Expression levels of exogenous and endogenous Ras proteins are shown by immunoblotting with a pan-ras monoclonal antibody. NRAS/KRAS4B are HA-tagged and KRAS4A is V5-tagged.
These cell lines are insensitive to 5Z-7-oxozeaenol.

[4] = system: HCT8 and SW837 (KRAS-independent) xenografted tumors; assay: Subcutaneous xenografted tumors, KRAS-independent; assay type: in vivo, NOD/SCID mice; conditions: 15 mg/kg daily intraperitoneal
Procedure: as §2
as §1, with “The drug was resuspended as a 25 mg/ml stock in DMSO. This was further diluted 10-fold in Arachis Oil (Sigma Inc.) to yield a 2.5 mg/ml stock in 10% DMSO. Approximately 120 μl of this stock was delivered to 20 g mice intraperitoneally. Alternatively, 10% DMSO in Arachis Oil was delivered as a vehicle control.” left out

LS-180 cells = assay: Cellular proliferation and viability, CRC cell line panel; assay type: cell-based, human; conditions: KRAS G12D, BRAF WT, APC WT, CTNNB1 S45A, 3 days post-treatment
Procedure: (§3) (A) IC50 values (μM) for effects on cellular proliferation and viability with the TAK1 kinase inhibitor 5z-7-oxozeaenol in a panel of colon cancer cell lines that have been genotyped as KRAS mutant (KRAS-independent—circles or KRAS-dependent—squares), BRAF mutant (triangles) or wild-type for both KRAS and BRAF (OTHER—diamonds). Effects on growth were measured 3 days post-treatment. Data are represented as the mean of 3 independent experiments and error bars indicate the median±interquartile range. *denotes p<0.00001; n.s.—not significant.
(§4) To further validate TAK1 as a candidate therapeutic target in this context, a potent and selective TAK1 kinase inhibitor, 5Z-7-oxozeaenol (Rawlins et al., 1999), was used. Sensitivity to 5Z-7-oxozeaenol was tested in a panel of 47 colon cancer cell lines with various genotypes (FIGS. 3A and 9A). KRAS and BRAF genotypes were either procured from the Sanger Institute's Catalog of Somatic Mutations (COSMIC) or determined by targeted resequencing (Table 2). KRAS mutation status was determined as described above; the same methods were used to determine the mutation states of BRAF. BRAF exon15 was sequenced with TCATAATGCTTGCTCTGATAGGA (forward; SEQ ID NO:3) and GGCCAAAAATTTAATCAGTGG (reverse; SEQ ID NO:4).

HT55 cells = assay: as above; assay type: cell-based, human; conditions: KRAS WT, BRAF WT, APC del, CTNNB1 WT, 3 days post-treatment
Procedure: as §3, §4

SW1463 cells = assay: as above; assay type: cell-based, human; conditions: KRAS G12C, BRAF WT, APC del, CTNNB1 WT, 3 days post-treatment
Procedure: as §3, §4

H630 cells = assay: as above; assay type: cell-based, human; conditions: KRAS WT, BRAF WT, APC del, CTNNB1 WT, 3 days post-treatment
Procedure: as §3, §4

COLO-678 cells = assay: as above; assay type: cell-based, human; conditions: KRAS G12D (KRAS-dependent), BRAF WT, APC del, CTNNB1 WT, 3 days post-treatment
Procedure: as §3, §4

T84 cells = assay: as above; assay type: cell-based, human; conditions: KRAS G13D, BRAF WT, APC del, CTNNB1 WT, 3 days post-treatment
Procedure: as §3, §4

Hs 1.Int cells = assay: as above; assay type: cell-based, human; conditions: KRAS WT, BRAF WT, 3 days post-treatment
Procedure: as §3, §4

SW48 cells = assay: as above; assay type: cell-based, human; conditions: KRAS WT, BRAF WT, APC WT, CTNNB1 S33Y, 3 days post-treatment
Procedure: as §3, §4

C170 cells = assay: as above; assay type: cell-based, human; conditions: KRAS G13D (KRAS-dependent), BRAF WT, CTNNB1 WT, 3 days post-treatment
Procedure: as §3, §4

CL-40 cells = assay: as above; assay type: cell-based, human; conditions: KRAS G12D (KRAS-dependent), BRAF WT, 3 days post-treatment
Procedure: as §3, §4

WiDR cells = assay: as above; assay type: cell-based, human; conditions: KRAS WT, BRAF V600E, APC del, CTNNB1 WT, 3 days post-treatment
Procedure: as §3, §4

HCT-8 cells = assay: as above; assay type: cell-based, human; conditions: KRAS G13D, BRAF WT, APC del, CTNNB1 WT, 3 days post-treatment
Procedure: as §3, §4

SW1116 cells = assay: as above; assay type: cell-based, human; conditions: KRAS G12A (KRAS-dependent), BRAF WT, APC del, CTNNB1 WT, 3 days post-treatment
Procedure: as §3, §4

## COc1cc(O)c2c(c1)/C=C/C[C@H](O)[C@H](O)C(=O)/C=C\C[C@H](C)OC2=O [5Z-7-oxozeaenol]
[1]
  toxicity in treated mice: No overt toxicity
[2]
  tumor response (imaging, tumor volume): remarkable regression
[3]
  change in sensitivity to 5Z-7-oxozeaenol: slightly increased resistance
[4]
  tumor response (imaging, tumor volume): no significant response
LS-180 cells
  IC50: 6740 nM
HT55 cells
  IC50: 1540 nM
SW1463 cells
  IC50: 2420 nM
H630 cells
  IC50: 4480 nM
COLO-678 cells
  IC50: 774 nM
T84 cells
  IC50: 2810 nM
Hs 1.Int cells
  IC50: 5640 nM
SW48 cells
  IC50: 1940 nM
C170 cells
  IC50: 1070 nM
CL-40 cells
  IC50: 482 nM
WiDR cells
  IC50: 2480 nM
HCT-8 cells
  IC50: 47300 nM
SW1116 cells
  IC50: 122 nM
